Data on 28 molecules can be found in patent US9637492B2, “Benzothiazole kinase inhibitors and methods of use” (Intellikine LLC, priority 2008, dated 2017).

In one data set the target is T1, mTORC (Homo sapiens, UniProt P42345).
T1 construct: purchased Invitrogen
In words: mTOR inhibition assay (Table 4, mTORC). Conditions: binned. It is filed as biochemical. On the procedure:
The compounds described herein can be tested against recombinant mTOR (Invitrogen) in an assay containing 50 mM HEPES, pH 7.5, 1 mM EGTA, 10 mM MgCl2, 2.5 mM, 0.01% Tween, 10 μM ATP (2.5 μCi of […]), and 3 μg/mL BSA. Rat recombinant PHAS-1/4EBP1 (Calbiochem; 2 mg/mL) is used as a substrate. Reactions are terminated by spotting onto nitrocellulose, which is washed with 1M NaCl/1% phosphoric acid (approximately 6 times, 5-10 minutes each). Sheets are dried and the transferred radioactivity quantitated by phosphorimaging.
Other kits or systems for assaying mTOR activity are commercially avaiable. For instance, one can use Invitrogen's LanthaScreen™ Kinase assay to test the inhibitors of mTOR disclosed herein. This assay is a time resolved FRET platform that measures the phosphorylation of GFP labeled 4EBP1 by mTOR kinase. The kinase reaction is performed in a white 384 well microtitre plate. The total reaction volume is 20 ul per well and the reaction buffer composition is 50 mM HEPES pH7.5, 0.01% Polysorbate 20, 1 mM EGTA, 10 mM MnC12, and 2 mM DTT. In the first step, each well receives 2 ul of test compound in 20% dimethylsulphoxide resulting in a 2% DMSO final concentration. Next, 8 ul of mTOR diluted in reaction buffer is added per well for a 60 ng/ml final concentration. To start the reaction, 10 ul of an ATP/GFP-4EBP1 mixture (diluted in reaction buffer) is added per well for a final concentration of 10 uM ATP and 0.5 uM GFP-4EBP1. The plate is sealed and incubated for 1 hour at room temperature. The reaction is stopped by adding 10 ul per well of a Tb-anti-pT46 4EBP1 antibody/EDTA mixture (diluted in TR-FRET buffer) for a final concentration of 1.3 nM antibody and 6.7 mM EDTA. The plate is sealed, incubated for 1 hour at room temperature, and then read on a plate reader set up for LanthaScreen™ TR-FRET. Data is analyzed and IC50s are generated using GraphPad Prism 5.

The next data set concerns the target T2, PI3K alpha (Homo sapiens, UniProt P42336).
T2 construct: purchased Upstate
In words: PI3K alpha inhibition assay. It is filed as biochemical. Conditions: binned.

The target in another data set is T3, PI3K beta (Homo sapiens, UniProt P42338).
T3 construct: purchased Upstate
T3 sequence (P42338 whole entry): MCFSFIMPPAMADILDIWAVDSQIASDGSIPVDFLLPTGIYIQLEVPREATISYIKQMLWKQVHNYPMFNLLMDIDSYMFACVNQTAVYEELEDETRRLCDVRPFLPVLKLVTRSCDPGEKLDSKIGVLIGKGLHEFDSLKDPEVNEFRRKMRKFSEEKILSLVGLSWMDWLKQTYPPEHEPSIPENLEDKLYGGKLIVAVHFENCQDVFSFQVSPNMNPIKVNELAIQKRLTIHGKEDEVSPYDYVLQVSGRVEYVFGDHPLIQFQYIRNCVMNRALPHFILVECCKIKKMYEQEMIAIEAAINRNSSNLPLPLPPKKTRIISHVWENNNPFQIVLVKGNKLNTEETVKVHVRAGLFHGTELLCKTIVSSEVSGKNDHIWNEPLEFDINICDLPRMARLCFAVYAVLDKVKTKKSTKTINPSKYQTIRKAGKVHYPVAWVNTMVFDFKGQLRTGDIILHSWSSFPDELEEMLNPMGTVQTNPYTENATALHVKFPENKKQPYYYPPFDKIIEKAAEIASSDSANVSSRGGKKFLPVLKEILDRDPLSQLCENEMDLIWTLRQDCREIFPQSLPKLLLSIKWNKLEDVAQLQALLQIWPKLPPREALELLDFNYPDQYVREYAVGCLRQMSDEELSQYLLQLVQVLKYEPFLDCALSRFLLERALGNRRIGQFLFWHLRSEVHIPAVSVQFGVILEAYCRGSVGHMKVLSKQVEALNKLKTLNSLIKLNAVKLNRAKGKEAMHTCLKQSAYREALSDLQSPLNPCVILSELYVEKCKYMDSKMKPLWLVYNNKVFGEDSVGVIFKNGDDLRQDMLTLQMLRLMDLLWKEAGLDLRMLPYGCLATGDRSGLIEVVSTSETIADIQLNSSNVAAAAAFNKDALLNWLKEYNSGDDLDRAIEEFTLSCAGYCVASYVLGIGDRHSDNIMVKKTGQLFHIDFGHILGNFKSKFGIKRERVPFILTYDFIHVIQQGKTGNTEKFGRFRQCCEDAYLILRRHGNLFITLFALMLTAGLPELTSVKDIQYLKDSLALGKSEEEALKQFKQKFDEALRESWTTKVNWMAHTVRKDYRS
T3 sequence (P27986 2-724 partner): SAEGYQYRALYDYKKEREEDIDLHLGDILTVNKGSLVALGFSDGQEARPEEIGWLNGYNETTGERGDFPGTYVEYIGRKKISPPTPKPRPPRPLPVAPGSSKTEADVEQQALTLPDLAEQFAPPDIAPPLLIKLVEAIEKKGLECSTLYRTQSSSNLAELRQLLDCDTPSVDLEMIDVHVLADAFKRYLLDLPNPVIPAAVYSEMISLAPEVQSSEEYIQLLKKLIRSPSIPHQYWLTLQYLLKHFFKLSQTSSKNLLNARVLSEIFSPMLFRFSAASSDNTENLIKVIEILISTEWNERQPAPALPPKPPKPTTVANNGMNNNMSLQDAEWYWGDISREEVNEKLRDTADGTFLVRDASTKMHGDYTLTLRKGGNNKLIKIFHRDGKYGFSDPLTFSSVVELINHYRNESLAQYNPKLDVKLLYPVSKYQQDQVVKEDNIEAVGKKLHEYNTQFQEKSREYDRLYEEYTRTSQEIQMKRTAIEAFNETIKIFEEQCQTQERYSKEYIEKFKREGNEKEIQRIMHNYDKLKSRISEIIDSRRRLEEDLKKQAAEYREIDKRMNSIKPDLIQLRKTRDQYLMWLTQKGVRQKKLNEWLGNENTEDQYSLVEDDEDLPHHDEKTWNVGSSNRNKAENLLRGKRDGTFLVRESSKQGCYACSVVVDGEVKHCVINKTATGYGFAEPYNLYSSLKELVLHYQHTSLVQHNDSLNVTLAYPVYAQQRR
Put plainly: PI3K beta inhibition assay. It counts as biochemical. To be noted: binned.

For data set [1] the following is noted: control or reference compounds, 5 μM; cited from earlier work.
In another data set the test system is PC3. Put plainly: Tumor cell line proliferation assay (Alamar Blue). It counts as cell-based. To be noted: Homo sapiens, PC-3; binned. On the procedure: The ability of one or more subject compounds to inhibit tumor cell line proliferation is determined according to standard procedures known in the art. For instance, an in vitro cellular proliferation assay can be performed to measure the metabolic activity of live cells. The assay is performed in a 96 well microtiter plate using Alamar Blue reduction. Human tumor cell lines are obtained from ATCC (e.g., MCF7, U-87 MG, MDA-MB-468, PC-3), grown to confluency in T75 flasks, trypsinized with 0.25% trypsin, washed one time with Tumor Cell Media (DMEM+10% FBS), and plated in 90 ul at 5,000 cells/well in Tumor Cell Media. A compound disclosed herein is diluted in Tumor Cell Media and added in a 10 ul volume. Plates are incubated for 72 hours at 37 C and 5% CO2. A volume of 10 uL of Alamar Blue reagent is added to each well and plates are incubated for 3 hours at 37 C and 5% CO2. Alamar Blue fluoresce is read at 560Ex/590Em, and IC50 values are calculated using GraphPad Prism 5.

The next data set has as its target T4, PI3K gamma (Homo sapiens, UniProt P48736).
T4 construct: purchased Sigma
In words: PI3K gamma inhibition assay. It is filed as biochemical. Conditions: binned. As to the method: For TLC analysis, reactions are then terminated by the addition of 105 μl 1N HCl followed by 160 μl CHC13:MeOH (1:1). The biphasic mixture is vortexed, briefly centrifuged, and the organic phase is transferred to a new tube using a gel loading pipette tip precoated with CHCl3. This extract is spotted on TLC plates and developed for 3-4 hours in a 65:35 solution of n-propanol:1M acetic acid. The TLC plates are then dried, exposed to a phosphorimager screen (Storm, Amersham), and quantitated. For each compound, kinase activity is measured at 10-12 inhibitor concentrations representing two-fold dilutions from the highest concentration tested (typically, 200 μM).
Other commercial kits or systems for assaying PI3-K activities are available. The commercially available kits or systems can be used to screen for inhibitors and/or agonists of PI3-Ks including but not limited to PI 3-Kinase α, β, δ, and γ. Anr exemplary system is PI 3-Kinase (human) HTRF™ Assay from Upstate. […] Briefly, the assay is a time resolved FRET assay that indirectly measures PIP3 product formed by the activity of a PI3-K. The kinase reaction is performed in a microtitre plate (e.g., a 384 well microtitre plate). […] The plate is sealed, incubated for 1 hour at room temperature, and then read on an appropriate plate reader. Data is analyzed and IC50s are generated using GraphPad Prism 5.

The target in another data set is T5, PI3K delta (Homo sapiens, UniProt O00329).
T5 construct: purchased Upstate
T5 sequence (O00329 whole entry): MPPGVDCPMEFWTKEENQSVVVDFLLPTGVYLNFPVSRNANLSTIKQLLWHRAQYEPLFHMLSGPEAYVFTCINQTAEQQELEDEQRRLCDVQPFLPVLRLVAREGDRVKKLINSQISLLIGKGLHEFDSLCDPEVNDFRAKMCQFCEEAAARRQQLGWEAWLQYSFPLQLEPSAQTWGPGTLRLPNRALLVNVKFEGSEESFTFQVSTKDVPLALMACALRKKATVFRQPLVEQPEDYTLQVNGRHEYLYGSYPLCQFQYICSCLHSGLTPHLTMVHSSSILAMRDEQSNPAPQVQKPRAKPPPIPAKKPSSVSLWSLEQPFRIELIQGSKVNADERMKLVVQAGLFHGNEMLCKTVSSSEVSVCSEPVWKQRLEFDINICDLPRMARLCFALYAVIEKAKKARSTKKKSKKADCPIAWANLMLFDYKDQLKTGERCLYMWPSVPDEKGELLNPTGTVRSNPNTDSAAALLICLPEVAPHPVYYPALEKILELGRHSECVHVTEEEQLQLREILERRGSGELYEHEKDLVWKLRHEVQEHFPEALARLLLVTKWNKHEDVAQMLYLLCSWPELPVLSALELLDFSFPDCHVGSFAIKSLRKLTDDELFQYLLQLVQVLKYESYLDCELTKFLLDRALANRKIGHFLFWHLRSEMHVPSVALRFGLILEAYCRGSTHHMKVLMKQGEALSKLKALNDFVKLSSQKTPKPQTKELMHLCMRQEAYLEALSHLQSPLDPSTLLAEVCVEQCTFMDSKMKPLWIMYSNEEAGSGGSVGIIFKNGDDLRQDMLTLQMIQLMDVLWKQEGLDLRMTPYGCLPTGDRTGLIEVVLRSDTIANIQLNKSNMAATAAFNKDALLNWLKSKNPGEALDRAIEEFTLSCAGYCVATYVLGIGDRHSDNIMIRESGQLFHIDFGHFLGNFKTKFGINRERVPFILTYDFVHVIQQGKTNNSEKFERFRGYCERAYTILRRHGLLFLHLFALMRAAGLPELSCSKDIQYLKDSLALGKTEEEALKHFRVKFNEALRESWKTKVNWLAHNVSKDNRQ
T5 sequence (P27986 whole entry partner): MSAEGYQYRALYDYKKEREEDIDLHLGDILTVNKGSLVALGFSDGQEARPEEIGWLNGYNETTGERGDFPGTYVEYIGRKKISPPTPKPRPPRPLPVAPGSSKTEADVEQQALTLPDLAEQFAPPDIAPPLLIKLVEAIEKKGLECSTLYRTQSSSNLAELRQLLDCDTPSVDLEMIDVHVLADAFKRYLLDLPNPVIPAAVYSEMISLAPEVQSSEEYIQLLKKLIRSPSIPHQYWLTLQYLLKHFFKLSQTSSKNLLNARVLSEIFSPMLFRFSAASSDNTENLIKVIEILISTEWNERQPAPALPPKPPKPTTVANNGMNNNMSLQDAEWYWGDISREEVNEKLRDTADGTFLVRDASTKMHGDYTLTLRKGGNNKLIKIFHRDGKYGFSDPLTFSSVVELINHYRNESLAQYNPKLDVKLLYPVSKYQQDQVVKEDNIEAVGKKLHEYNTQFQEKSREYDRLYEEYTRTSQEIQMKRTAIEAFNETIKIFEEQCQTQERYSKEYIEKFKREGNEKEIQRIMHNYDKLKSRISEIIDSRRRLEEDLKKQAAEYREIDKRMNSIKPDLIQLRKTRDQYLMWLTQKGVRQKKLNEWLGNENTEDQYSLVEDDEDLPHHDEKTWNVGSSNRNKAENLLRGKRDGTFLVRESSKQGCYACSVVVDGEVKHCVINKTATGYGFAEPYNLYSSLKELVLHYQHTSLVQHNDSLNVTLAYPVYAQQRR
Put plainly: PI3K delta inhibition assay. It counts as biochemical. To be noted: binned.

For data set [2] the following is noted: PBS pH 7.4, 37° C., over the course of 24 hours; cited from earlier work.
In data set [3] the test system is p190 transduced leukemic cells. Conditions: about 70 mg/kg twice daily; cited from earlier work.
The test system of another data set is B6.Sle1z.Sle3z model. Conditions: cited from earlier work.

pIC50: −log10 of the molar value. Where only a bound is given, the exact number is not on record here.

T1 sequence (P42345 1360-2549 limits assumed): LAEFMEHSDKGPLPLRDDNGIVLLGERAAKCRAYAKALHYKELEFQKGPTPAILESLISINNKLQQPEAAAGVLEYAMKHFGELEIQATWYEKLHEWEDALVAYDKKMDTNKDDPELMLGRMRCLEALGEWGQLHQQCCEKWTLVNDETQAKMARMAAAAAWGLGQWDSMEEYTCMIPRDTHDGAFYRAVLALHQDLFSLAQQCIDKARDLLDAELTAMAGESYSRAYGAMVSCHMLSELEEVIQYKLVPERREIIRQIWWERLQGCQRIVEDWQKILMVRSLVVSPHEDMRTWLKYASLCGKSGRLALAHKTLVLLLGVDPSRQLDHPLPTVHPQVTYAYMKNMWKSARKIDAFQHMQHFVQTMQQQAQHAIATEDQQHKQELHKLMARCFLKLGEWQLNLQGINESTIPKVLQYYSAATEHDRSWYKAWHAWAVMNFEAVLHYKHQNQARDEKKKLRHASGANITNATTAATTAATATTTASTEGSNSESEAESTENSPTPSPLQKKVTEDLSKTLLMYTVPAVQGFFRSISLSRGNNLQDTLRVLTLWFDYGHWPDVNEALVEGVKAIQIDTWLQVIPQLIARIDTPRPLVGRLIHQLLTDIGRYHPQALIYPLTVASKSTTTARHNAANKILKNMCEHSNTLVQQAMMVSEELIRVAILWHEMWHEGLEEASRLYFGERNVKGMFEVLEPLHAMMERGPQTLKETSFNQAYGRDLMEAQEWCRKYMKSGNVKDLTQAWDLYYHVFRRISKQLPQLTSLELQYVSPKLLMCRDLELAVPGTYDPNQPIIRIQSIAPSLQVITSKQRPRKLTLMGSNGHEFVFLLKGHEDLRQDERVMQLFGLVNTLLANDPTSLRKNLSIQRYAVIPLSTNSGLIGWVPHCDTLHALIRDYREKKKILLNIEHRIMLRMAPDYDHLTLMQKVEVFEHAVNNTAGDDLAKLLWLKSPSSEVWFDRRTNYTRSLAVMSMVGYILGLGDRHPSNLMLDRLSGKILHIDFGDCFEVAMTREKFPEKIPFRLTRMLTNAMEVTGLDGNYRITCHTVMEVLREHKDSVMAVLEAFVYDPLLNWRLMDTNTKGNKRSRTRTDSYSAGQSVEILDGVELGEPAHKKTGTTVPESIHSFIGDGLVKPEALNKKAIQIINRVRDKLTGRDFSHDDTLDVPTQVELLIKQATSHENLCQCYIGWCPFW
Experimental for PI3K alpha: (§1) For TLC analysis, reactions are then terminated by the addition of 105 μl 1N HCl followed by 160 μl CHC13:MeOH (1:1). The biphasic mixture is vortexed, briefly centrifuged, and the organic phase is transferred to a new tube using a gel loading pipette tip precoated with CHCl3. […] The TLC plates are then dried, exposed to a phosphorimager screen (Storm, Amersham), and quantitated.
(§2) Anr exemplary system is PI 3-Kinase (human) HTRF™ Assay from Upstate. […] Briefly, the assay is a time resolved FRET assay that indirectly measures PIP3 product formed by the activity of a PI3-K. The kinase reaction is performed in a microtitre plate (e.g., a 384 well microtitre plate). The total reaction volume is approximately 20 ul per well. In the first step, each well receives 2 ul of test compound in 20% dimethylsulphoxide resulting in a 2% DMSO final concentration. Next, approximately 14.5 ul of a kinase/PIP2 mixture (diluted in 1× reaction buffer) is added per well for a final concentration of 0.25-0.3 ug/ml kinase and 10 uM PIP2. The plate is sealed and incubated for 15 minutes at room temperature. To start the reaction, 3.5 ul of ATP (diluted in 1× reaction buffer) is added per well for a final concentration of 10 uM ATP. The plate is sealed and incubated for 1 hour at room temperature. The reaction is stopped by adding 5 ul of Stop Solution per well and then 5 ul of Detection Mix is added per well. The plate is sealed, incubated for 1 hour at room temperature, and then read on an appropriate plate reader. Data is analyzed and IC50s are generated using GraphPad Prism 5.
Experimental for PI3K beta: as §1, §2
Experimental for PI3K delta: as §1, §2

Broadly, the pIC50 is −log10 of the IC50, conventionally taken in molar units. A higher pIC50 goes with a small IC50. As to `CC(=O)Nc1nc2ccc(-c3nn(C(C)C)c4ncnc(N)c34)cc2s1` [Compound 1], the pIC50 is not below 7.30 against mTORC, not below 6.30 on PI3K alpha and less than 6.00 against PI3K beta.
As for `CC(C)[N+](C)(CCOC(=O)C1c2ccccc2Oc2ccccc21)C(C)C` [propantheline], the plasma stability result in [1] was “intermediate plasma stability”.
Turning to `CCn1nc(-c2ccc3nc(NC(C)=O)sc3c2)c2c(N)ncnc21` [Compound 5], the pIC50 against mTORC was not below 7.30; against PI3K alpha, not below 7.00; at PI3K beta, less than 6.00.
In the case of `CNC(=O)Nc1nc2ccc(-c3cn(C4CCOCC4)c4ncnc(N)c34)cc2s1` [Compound 21], the pIC50 at mTORC is not below 7.30; with PC3 it was not below 6.00.
Regarding `CNC(=O)Nc1nc2ccc(-c3cn(C4CCN(C(C)=O)CC4)c4ncnc(N)c34)cc2s1` [Compound 23], the pIC50 against mTORC was not below 7.30; at PI3K beta, not below 7.00; with PC3, less than 6.00.
Consider `CCNc1nc2ccc(-c3nn(C(C)C)c4ncnc(N)c34)cc2s1` [Compound 12], for which the pIC50 against mTORC was not below 6.30; on PI3K alpha, not below 6.30; against PI3K gamma it was not below 6.30; against PI3K delta it was not below 6.00.
Turning to `CC(C)n1nc(-c2ccc3ncsc3c2)c2c(N)ncnc21` [Compound 2], the pIC50 against mTORC is less than 6.00.
For the molecule `CCC(=O)Nc1nc2ccc(-c3nn(C(C)C)c4ncnc(N)c34)cc2s1` [Compound 9], the pIC50 at mTORC and against PI3K alpha was not below 6.30 throughout.
`O=C(O)CCCc1ccc(N(CCCl)CCCl)cc1` [chlorambucil]: the chemical stability entry in data set [2] is reported as “largely hydrolyzed”.
Turning to `CC(=O)Nc1nc2ccc(-c3nn(C4CCCC4)c4ncnc(N)c34)cc2s1` [Compound 4], the negative-log IC50 (pIC50) was not below 7.30 against mTORC and less than 6.00 against PI3K beta.
In the case of `CCCOc1cc(N)ccc1C(=O)OCCN(CC)CC` [propoxycaine], the plasma stability entry in [1] was “low plasma stability”.
On to `CC(=O)Nc1nc2ccc(-c3nn(C)c4ncnc(N)c34)cc2s1` [Compound 6], for which the pIC50 against mTORC is less than 6.00; against PI3K alpha it was not below 6.00.
With `Cc1ccc(NC(=O)c2ccc(CN3CCN(C)CC3)cc2)cc1Nc1nccc(-c2cccnc2)n1` [imatinib], the leukemogenesis entry in [3] is listed as “delay but not cure leukemogenesis”.
Molecule `CNC(=O)Nc1nc2ccc(-c3nn(C(C)C)c4ncnc(N)c34)cc2s1` [Compound 20] had a pIC50 at mTORC not below 7.30.
Turning to `CO[C@H]1C[C@@H]2CC[C@@H](C)[C@@](O)(O2)C(=O)C(=O)N2CCCC[C@H]2C(=O)O[C@H]([C@H](C)C[C@@H]2CC[C@@H](OCCO)[C@H](OC)C2)CC(=O)[C@H](C)/C=C(\C)[C@@H](O)[C@@H](OC)C(=O)[C@H](C)C[C@H](C)/C=C/C=C/C=C/1C` [RAD001], in the data set with B6.Sle1z.Sle3z model, the lupus symptoms result is reported as “ameliorate lupus symptoms”.
Consider `CC(C)n1nc(-c2ccc3nc(NC4CC4)sc3c2)c2c(N)ncnc21` [Compound 15], for which the pIC50 on mTORC was not below 6.30; against PI3K alpha, less than 6.00; on PI3K beta, less than 6.00.
Consider `CNC(=O)Cn1nc(-c2ccc3nc(NC(C)=O)sc3c2)c2c(N)ncnc21` [Compound 18], for which the pIC50 on mTORC, on PI3K beta and against PI3K gamma was less than 6.00 each time.
Take `CNC(=O)Nc1nc2ccc(-c3cn(C(C)C)c4ncnc(N)c34)cc2s1` [Compound 22]: the pIC50 at mTORC was not below 7.30; in the data set with PC3 it was not below 7.00.
On to `CC(=O)Nc1nc2ccc(-c3nn(C4CCOCC4)c4ncnc(N)c34)cc2s1` [Compound 19], for which the figures for the pIC50 against mTORC and at PI3K alpha were not below 7.30 and not below 6.30, respectively.
Consider `CC(C)C(=O)Nc1nc2ccc(-c3nn(C(C)C)c4ncnc(N)c34)cc2s1` [Compound 7], for which the pIC50 against mTORC is less than 6.00.
Molecule `CC(=O)Nc1nc2cc(-c3nn(C(C)C)c4ncnc(N)c34)ccc2s1` [Compound 17] gave a pIC50 against mTORC not below 6.00.
In the case of `CC(C)n1nc(-c2ccc3nc(NCCO)sc3c2)c2c(N)ncnc21` [Compound 16], the pIC50 at mTORC and at PI3K alpha was not below 6.00 in each case.
Regarding `CC(C)n1nc(-c2ccc3nc(NCCN4CCOCC4)sc3c2)c2c(N)ncnc21` [Compound 13], the pIC50 against mTORC and at PI3K alpha was less than 6.00 each time.
Consider `CC(C)n1nc(-c2ccc3nc(N)sc3c2)c2c(N)ncnc21` [Compound 3], for which the pIC50 against mTORC was not below 7.30; against PI3K alpha, not below 6.30; against PI3K beta it was less than 6.00; at PI3K delta it was not below 7.00.
As for `CC(C)n1nc(-c2ccc3nc(NC(=O)C4CC4)sc3c2)c2c(N)ncnc21` [Compound 8], the figures for the pIC50 against mTORC and at PI3K alpha were not below 6.30 and not below 6.00, respectively.
As for `CC(=O)Nc1nc2ccc(-c3nn(C4CCC4)c4ncnc(N)c34)cc2s1` [Compound 10], the pIC50 at mTORC, at PI3K alpha and at PI3K delta was not below 7.00 in each case.
For the molecule `CNc1nc2ccc(-c3nn(C(C)C)c4ncnc(N)c34)cc2s1` [Compound 11], the pIC50 was not below 7.30 on mTORC, not below 7.00 at PI3K alpha, less than 6.00 against PI3K beta and not below 6.30 against PI3K delta.
Consider `CC(C)n1nc(-c2ccc3nc(N4CCOCC4)sc3c2)c2c(N)ncnc21` [Compound 14], for which the pIC50 at mTORC and on PI3K alpha was less than 6.00 in each case.
